Experimental data reported in ChEMBL document CHEMBL1140635, “Computational modeling tools for the design of potent antimalarial bisbenzamidines: overcoming the antimalarial potential of pentamidine” (Bioorg Med Chem, 2007).

System: Plasmodium falciparum
Test: Antiplasmodial activity against chloroquine-sensitive Plasmodium falciparum D6 by LDH reporter assay
Assay type: functional, organism-based

IC50 [nM]	Structure (SMILES)
75	CCCCCCCCCCNC(=N)c1ccc(N2CCN(c3ccc(C(=N)NCCCCCCCCCC)cc3)CC2)cc1
18	CCCCNC(=N)c1ccc(N2CCCN(c3ccc(C(=N)NCCCC)cc3)CC2)cc1
8800	N=C(NCCCO)c1ccc(N2CCN(c3ccc(C(=N)NCCCO)cc3)CC2)cc1
48	CCCCCCCNC(=N)c1ccc(N2CCN(c3ccc(C(=N)NCCCCCCC)cc3)CC2)cc1
862	CNC(=N)c1ccc(N2CCN(c3ccc(C(=N)NC)cc3)CC2)cc1
114	N=C(N)c1ccc(OCc2ccc(COc3ccc(C(=N)N)cc3)cc2)cc1
21	CCCCCNC(=N)c1ccc(N2CCN(c3ccc(C(=N)NCCCCC)cc3)CC2)cc1
4880	c1ccc2[nH]c(-c3ccc(N4CCN(c5ccc(-c6nc7ccccc7[nH]6)cc5)CC4)cc3)nc2c1
88	CCCCCCCCCNC(=N)c1ccc(N2CCN(c3ccc(C(=N)NCCCCCCCCC)cc3)CC2)cc1
640	N=C(N)c1ccc(NC(=O)CCCCC(=O)Nc2ccc(C(=N)N)cc2)cc1
840	C(=C1CCN(c2ccc(C3=NCCN3)cc2)CC1)c1ccc(C2=NCCN2)cc1
671	N=C(N)c1ccc(COc2ccccc2OCc2ccc(C(=N)N)cc2)cc1
3890	CCCCCCCCCCCCNC(=N)c1ccc(N2CCN(c3ccc(C(=N)NCCCCCCCCCCCC)cc3)CC2)cc1
55	N=C(NC1CCCCCCC1)c1ccc(N2CCN(c3ccc(C(=N)NC4CCCCCCC4)cc3)CC2)cc1
106	c1cc(N2CCN(c3ccc(C4=NCCCN4)cc3)CC2)ccc1C1=NCCCN1
85	N=C(N)c1ccc(OCc2cccc(COc3ccc(C(=N)N)cc3)c2)cc1

The next lines start with the compound.

Structure (SMILES)	IC50 [nM]
CCCCCCCCNC(=N)c1ccc(N2CCN(c3ccc(C(=N)NCCCCCCCC)cc3)CC2)cc1	138
N=C(NC1CC1)c1ccc(N2CCCN(c3ccc(C(=N)NC4CC4)cc3)CC2)cc1	306
CCNC(=N)c1ccc(N2CCN(c3ccc(C(=N)NCC)cc3)CC2)cc1	124
c1cc(N2CCN(c3ccc(C4=NCCN4)cc3)CC2)ccc1C1=NCCN1	89
N=C(NC1CC1)c1ccc(N2CCN(c3ccc(C(=N)NC4CC4)cc3)CC2)cc1	358
N=C(N)c1ccc(N2CCCN(c3ccc(C(=N)N)cc3)CC2)cc1	1600
N=C(NC1CCC1)c1ccc(N2CCN(c3ccc(C(=N)NC4CCC4)cc3)CC2)cc1	7
CCCNC(=N)c1ccc(N2CCN(c3ccc(C(=N)NCCC)cc3)CC2)cc1	29
N=C(N)c1ccc(OCc2ccccc2COc2ccc(C(=N)N)cc2)cc1	313
c1cc(C2=NCCN2)ccc1CC1CCN(c2ccc(C3=NCCN3)cc2)CC1	402
CCCCCCNC(=N)c1ccc(N2CCN(c3ccc(C(=N)NCCCCCC)cc3)CC2)cc1	35
N=C(NC1CCCCCC1)c1ccc(N2CCN(c3ccc(C(=N)NC4CCCCCC4)cc3)CC2)cc1	36
N=C(NO)c1ccc(N2CCN(c3ccc(C(=N)NO)cc3)CC2)cc1	8320
c1cc(N2CCCN(c3ccc(C4=NCCN4)cc3)CC2)ccc1C1=NCCN1	148
c1cc(N2CCCN(c3ccc(C4=NCCCN4)cc3)CC2)ccc1C1=NCCCN1	5110
N=C(N)c1ccc(OCCCCCOc2ccc(C(=N)N)cc2)cc1 [PENTAMIDINE]	278
CC(C)CCNC(=N)c1ccc(N2CCN(c3ccc(C(=N)NCCC(C)C)cc3)CC2)cc1	42
CCC(C)CNC(=N)c1ccc(N2CCN(c3ccc(C(=N)NCC(C)CC)cc3)CC2)cc1 (centres undefined)	69
